Reference: patent US11234997B2, “Antibacterial activity of galactooligosaccharide and xylitol in dermatological treatments” (ROTTAPHARM SPA, priority 2017, dated 2022)

Assays:
[1] = system: S. aureus 815 (clinical strain); experiment: Planktonic phase growth reduction (OD600); format: cell-based, Staphylococcus aureus; details: GOS 0%
Procedure: (§1) Galactooligosaccharide and xylitol were evaluated alone and in combination at different concentrations (concentrations: 0, 1, 2.5 and 5%) to affect bacterial planktonic production and biofilm-forming ability of standardized broth cultures of S. aureus 815 (clinical strain) and S. epidermidis 317 (clinical strain) was assessed. Different concentrations of galactooligosaccharide, xylitol and their combination, were added to a 96 well plate to evaluate their in vitro effect on S. aureus and S. epidermidis bacterial planktonic population. The overnight bacterial inocula were prepared in Tryptic soy broth (TSB), refreshed in the same medium and adjusted to OD600=0.12 (approximately 5×10^6 CFU/ml) for the experiments. For the controls, galactooligosaccharide and xylitol were also assayed alone. The plates were incubated for t=3, and 6 h at 37° C. in aerobic conditions. Each determination was performed in duplicate for three independent experiments and the biomass was evaluated using a safranin staining method. After each time of incubation, the reduction of the OD600 was evaluated in respect to the controls and the colony forming units (CFU)/ml at 0 and 24 h were detected. Table 3 outlines the percentage reduction of S. aureus 815 and S. epidermidis 317 growth in planktonic phase in the presence of galactooligosaccharide, xylitol and their combinations at different concentrations (OD600) after 3 and 6 h.

[2] = system: S. epidermidis 317 (clinical strain); experiment: Planktonic phase growth reduction (OD600); format: cell-based, Staphylococcus epidermidis; details: GOS 0%
Procedure: as §1

[3] = system: S. aureus 815 (clinical strain); experiment: Biofilm phase reduction (safranin staining, OD492); format: cell-based, Staphylococcus aureus; details: GOS 0%; for percentage of biofilm reduction (anti-adhesive): 3 h; for percentage of biofilm reduction (anti-biofilm): 24 h
Procedure: (§2) Galactooligosaccharide and xylitol were evaluated alone and in combination at different concentrations (concentrations: 0, 1, 2.5 and 5%) to affect bacterial planktonic production and biofilm-forming ability of standardized broth cultures of S. aureus 815 (clinical strain) and S. epidermidis 317 (clinical strain) was assessed. Bacterial suspensions grown in TSB supplemented with 0.5% (v/v) glucose at logarithmic phase, were incubated on 96 flat-bottomed microliter plates in the presence of galactooligosaccharide or xylitol or their combination at different concentrations or TSB (control). After incubation for 3 h and 24 h at 37° C., each well was washed twice with sterile PBS, air-dried, stained for 1 min with 0.1% safranin, and washed with PBS. The stained biofilm were re-suspended in 200 μl ethanol (95% v/v), and OD492 was measured by spectrophotometry using an ELISA reader. Table 4 outlines the percentage of biofilm reduction (anti-adhesive (3 h) and anti-biofilm (24 h)) of S. aureus 815 and S. epidermidis 317 in the presence of galactooligosaccharide, xylitol and their combinations at different concentrations.

[4] = system: S. epidermidis 317 (clinical strain); experiment: Biofilm phase reduction (safranin staining, OD492); format: cell-based, Staphylococcus epidermidis; details: GOS 0%; for percentage of biofilm reduction (anti-adhesive): 3 h; for percentage of biofilm reduction (anti-biofilm): 24 h
Procedure: as §2

**Q.** With OC[C@@H](O)[C@H](O)[C@@H](O)CO [Xylitol, xylitol] as the compound, how does the “percentage reduction of growth in planktonic phase (OD600)” value (“percentage reduction of growth” for short) ([1]; xylitol 1%, 3 h) read?
**A.** 14.38%

**Q.** What about the “percentage reduction of growth” value ([1]; xylitol 1%, 6 h) of the same compound?
**A.** 15.86%

**Q.** And the “percentage reduction of growth” value ([1]; xylitol 2.5%, 3 h)?
**A.** 23.93%

**Q.** And the “percentage reduction of growth” value ([1]; xylitol 2.5%, 6 h)?
**A.** 27.80%

**Q.** And the “percentage reduction of growth” value ([1]; xylitol 5%, 3 h)?
**A.** 26.70%

**Q.** And the “percentage reduction of growth” value ([1]; xylitol 5%, 6 h)?
**A.** 35.13%

**Q.** What about the “percentage reduction of growth” value ([2]; xylitol 1%, 3 h) of the same compound?
**A.** 13.40%

**Q.** What about the “percentage reduction of growth” value ([2]; xylitol 1%, 6 h) of the same compound?
**A.** 22.11%

**Q.** And the “percentage reduction of growth” value ([2]; xylitol 2.5%, 3 h)?
**A.** 19.36%

**Q.** And the “percentage reduction of growth” value ([2]; xylitol 2.5%, 6 h)?
**A.** 28.57%

**Q.** What about the “percentage reduction of growth” value ([2]; xylitol 5%, 3 h) of the same compound?
**A.** 27.13%

**Q.** And the “percentage reduction of growth” value ([2]; xylitol 5%, 6 h)?
**A.** 29.99%

**Q.** And the “percentage of biofilm reduction (anti-adhesive)” value ([3]; xylitol 1%)?
**A.** 21.61%

**Q.** What about the “percentage of biofilm reduction (anti-biofilm)” value ([3]; xylitol 1%) of the same compound?
**A.** 51.68%

**Q.** And the “percentage of biofilm reduction (anti-adhesive)” value ([3]; xylitol 2.5%)?
**A.** 28.81%

**Q.** What about the “percentage of biofilm reduction (anti-biofilm)” value ([3]; xylitol 2.5%) of the same compound?
**A.** 47.8%

**Q.** What about the “percentage of biofilm reduction (anti-adhesive)” value ([3]; xylitol 5%) of the same compound?
**A.** 36.98%

**Q.** And the “percentage of biofilm reduction (anti-biofilm)” value ([3]; xylitol 5%)?
**A.** 56.02%

**Q.** What about the “percentage of biofilm reduction (anti-adhesive)” value ([4]; xylitol 1%) of the same compound?
**A.** 1.00%

**Q.** What about the “percentage of biofilm reduction (anti-biofilm)” value ([4]; xylitol 1%) of the same compound?
**A.** 22.81%

**Q.** What about the “percentage of biofilm reduction (anti-adhesive)” value ([4]; xylitol 2.5%) of the same compound?
**A.** 10.64%

**Q.** And the “percentage of biofilm reduction (anti-biofilm)” value ([4]; xylitol 2.5%)?
**A.** 22.18%

**Q.** And the “percentage of biofilm reduction (anti-adhesive)” value ([4]; xylitol 5%)?
**A.** 14.16%

**Q.** What about the “percentage of biofilm reduction (anti-biofilm)” value ([4]; xylitol 5%) of the same compound?
**A.** 5.67%
